This note sets out measurements from publication PMC7613998, “Development of selective inhibitors of phosphatidylinositol 3-kinase C2α” (Nature Chemical Biology, 2022).

Common to all, as to test: biochemical
Parameters in all cases: SelectScreen LanthaScreen kinase binding assay, per cent tracer displacement, mean of two points
What all share (conditions): tracer displacement
A general note: In TR-FRET formats the signal depends on donor and acceptor labels being close together.

Assay [1] has as its target TNIK (Homo sapiens, UniProt Q9UKE5).
Assay [2] concerns the target KIT V559D T670I (Homo sapiens, UniProt P10721, T670I/V559D).
Assay [3] has as its target T1, ULK2 (Homo sapiens, UniProt Q8IYT8).
T1 sequence (Q8IYT8 1-1036): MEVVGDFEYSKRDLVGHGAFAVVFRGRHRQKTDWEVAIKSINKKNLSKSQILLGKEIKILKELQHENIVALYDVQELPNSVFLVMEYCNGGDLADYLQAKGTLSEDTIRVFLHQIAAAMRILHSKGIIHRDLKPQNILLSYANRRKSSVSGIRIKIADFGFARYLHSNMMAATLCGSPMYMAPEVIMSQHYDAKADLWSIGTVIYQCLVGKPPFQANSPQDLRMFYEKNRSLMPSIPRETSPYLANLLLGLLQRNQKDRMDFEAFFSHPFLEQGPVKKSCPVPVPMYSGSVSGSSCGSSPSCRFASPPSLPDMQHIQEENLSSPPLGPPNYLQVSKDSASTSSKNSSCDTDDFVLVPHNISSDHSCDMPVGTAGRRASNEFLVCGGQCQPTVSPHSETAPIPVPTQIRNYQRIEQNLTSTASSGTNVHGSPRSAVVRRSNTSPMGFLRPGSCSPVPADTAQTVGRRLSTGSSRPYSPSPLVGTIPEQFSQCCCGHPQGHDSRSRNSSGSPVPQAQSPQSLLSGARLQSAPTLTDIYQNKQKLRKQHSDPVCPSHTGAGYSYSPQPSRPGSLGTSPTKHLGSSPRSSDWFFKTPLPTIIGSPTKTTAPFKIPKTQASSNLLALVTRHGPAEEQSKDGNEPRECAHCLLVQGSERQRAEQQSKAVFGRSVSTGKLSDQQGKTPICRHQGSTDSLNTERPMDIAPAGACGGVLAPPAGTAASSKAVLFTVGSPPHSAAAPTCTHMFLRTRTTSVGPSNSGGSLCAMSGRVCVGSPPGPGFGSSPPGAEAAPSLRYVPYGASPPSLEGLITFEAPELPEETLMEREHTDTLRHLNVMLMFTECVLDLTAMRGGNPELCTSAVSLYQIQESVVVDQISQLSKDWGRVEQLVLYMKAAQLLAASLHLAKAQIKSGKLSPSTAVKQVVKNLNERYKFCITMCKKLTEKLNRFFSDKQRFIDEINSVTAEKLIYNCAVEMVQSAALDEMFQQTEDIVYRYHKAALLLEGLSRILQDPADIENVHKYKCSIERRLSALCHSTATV

The target of assay [4] is T2, MAP3K7/MAP3K7IP1 (TAK1-TAB1) (Homo sapiens, UniProt O43318).
T2 construct: TAK1-TAB1
T2 sequence (O43318 1-606): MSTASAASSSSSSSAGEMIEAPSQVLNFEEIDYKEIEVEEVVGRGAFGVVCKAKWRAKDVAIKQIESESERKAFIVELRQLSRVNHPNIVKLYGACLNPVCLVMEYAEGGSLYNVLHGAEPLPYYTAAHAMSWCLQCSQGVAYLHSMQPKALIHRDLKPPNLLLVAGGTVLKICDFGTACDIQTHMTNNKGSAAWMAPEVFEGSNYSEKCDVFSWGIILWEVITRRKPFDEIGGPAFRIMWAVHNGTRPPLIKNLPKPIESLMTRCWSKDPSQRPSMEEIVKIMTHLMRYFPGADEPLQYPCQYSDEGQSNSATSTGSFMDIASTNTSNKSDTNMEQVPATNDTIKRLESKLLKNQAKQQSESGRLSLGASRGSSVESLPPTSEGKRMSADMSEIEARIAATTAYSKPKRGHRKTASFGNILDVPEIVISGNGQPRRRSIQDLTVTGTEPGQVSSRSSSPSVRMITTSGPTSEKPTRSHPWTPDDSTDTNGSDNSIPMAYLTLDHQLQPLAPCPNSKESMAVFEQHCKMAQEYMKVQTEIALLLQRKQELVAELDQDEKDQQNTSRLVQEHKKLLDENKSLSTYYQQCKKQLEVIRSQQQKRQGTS
T2 sequence (Q15750 1-504 partner): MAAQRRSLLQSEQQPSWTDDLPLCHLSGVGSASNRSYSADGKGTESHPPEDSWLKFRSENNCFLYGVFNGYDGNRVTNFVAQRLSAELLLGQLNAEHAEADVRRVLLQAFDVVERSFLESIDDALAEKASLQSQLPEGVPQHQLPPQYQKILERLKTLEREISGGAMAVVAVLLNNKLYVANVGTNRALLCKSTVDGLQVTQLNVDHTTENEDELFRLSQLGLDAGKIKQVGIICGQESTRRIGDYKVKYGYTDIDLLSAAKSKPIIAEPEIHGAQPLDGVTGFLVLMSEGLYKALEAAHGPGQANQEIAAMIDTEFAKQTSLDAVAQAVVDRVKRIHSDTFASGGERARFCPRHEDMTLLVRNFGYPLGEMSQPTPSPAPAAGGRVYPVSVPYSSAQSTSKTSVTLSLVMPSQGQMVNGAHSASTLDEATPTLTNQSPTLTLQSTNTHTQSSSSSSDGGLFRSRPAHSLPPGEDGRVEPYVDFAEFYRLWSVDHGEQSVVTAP

Chain of TNIK (Q9UKE5 whole entry): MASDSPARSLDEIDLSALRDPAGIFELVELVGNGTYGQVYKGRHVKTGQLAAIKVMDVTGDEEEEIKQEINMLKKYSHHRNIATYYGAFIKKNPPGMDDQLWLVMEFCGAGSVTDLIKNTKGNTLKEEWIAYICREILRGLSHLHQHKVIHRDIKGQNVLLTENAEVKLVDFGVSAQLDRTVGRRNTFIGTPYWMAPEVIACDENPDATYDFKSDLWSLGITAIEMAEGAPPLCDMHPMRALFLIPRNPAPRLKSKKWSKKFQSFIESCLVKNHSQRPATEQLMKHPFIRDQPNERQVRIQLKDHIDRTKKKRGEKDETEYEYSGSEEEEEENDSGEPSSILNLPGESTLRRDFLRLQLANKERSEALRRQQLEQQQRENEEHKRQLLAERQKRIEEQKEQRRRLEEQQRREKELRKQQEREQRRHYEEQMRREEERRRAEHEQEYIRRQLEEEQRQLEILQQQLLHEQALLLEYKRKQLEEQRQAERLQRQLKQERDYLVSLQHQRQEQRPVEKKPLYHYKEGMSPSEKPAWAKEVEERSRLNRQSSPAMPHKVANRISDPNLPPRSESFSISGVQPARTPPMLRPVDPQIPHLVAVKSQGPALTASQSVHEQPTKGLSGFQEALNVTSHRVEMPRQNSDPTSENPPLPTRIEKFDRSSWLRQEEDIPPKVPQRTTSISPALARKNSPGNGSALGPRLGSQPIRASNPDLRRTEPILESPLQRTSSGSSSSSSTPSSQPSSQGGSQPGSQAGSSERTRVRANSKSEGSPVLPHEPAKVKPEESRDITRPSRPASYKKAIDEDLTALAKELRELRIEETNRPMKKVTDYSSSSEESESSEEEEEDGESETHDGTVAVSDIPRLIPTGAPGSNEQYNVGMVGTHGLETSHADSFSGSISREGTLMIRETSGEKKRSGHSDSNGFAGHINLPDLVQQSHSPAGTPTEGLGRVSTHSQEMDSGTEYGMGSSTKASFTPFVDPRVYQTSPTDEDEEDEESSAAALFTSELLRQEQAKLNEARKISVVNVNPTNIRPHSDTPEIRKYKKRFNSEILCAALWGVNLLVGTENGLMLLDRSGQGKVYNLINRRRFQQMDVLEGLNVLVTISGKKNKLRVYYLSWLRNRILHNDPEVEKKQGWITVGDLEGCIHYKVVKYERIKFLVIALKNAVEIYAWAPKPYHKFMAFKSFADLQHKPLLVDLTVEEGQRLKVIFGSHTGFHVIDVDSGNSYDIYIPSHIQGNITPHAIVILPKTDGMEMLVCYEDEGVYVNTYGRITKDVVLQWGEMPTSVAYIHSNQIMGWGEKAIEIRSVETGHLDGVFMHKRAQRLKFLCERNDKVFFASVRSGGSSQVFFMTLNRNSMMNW
Chain of KIT V559D T670I (P10721 whole entry V559D/T670I): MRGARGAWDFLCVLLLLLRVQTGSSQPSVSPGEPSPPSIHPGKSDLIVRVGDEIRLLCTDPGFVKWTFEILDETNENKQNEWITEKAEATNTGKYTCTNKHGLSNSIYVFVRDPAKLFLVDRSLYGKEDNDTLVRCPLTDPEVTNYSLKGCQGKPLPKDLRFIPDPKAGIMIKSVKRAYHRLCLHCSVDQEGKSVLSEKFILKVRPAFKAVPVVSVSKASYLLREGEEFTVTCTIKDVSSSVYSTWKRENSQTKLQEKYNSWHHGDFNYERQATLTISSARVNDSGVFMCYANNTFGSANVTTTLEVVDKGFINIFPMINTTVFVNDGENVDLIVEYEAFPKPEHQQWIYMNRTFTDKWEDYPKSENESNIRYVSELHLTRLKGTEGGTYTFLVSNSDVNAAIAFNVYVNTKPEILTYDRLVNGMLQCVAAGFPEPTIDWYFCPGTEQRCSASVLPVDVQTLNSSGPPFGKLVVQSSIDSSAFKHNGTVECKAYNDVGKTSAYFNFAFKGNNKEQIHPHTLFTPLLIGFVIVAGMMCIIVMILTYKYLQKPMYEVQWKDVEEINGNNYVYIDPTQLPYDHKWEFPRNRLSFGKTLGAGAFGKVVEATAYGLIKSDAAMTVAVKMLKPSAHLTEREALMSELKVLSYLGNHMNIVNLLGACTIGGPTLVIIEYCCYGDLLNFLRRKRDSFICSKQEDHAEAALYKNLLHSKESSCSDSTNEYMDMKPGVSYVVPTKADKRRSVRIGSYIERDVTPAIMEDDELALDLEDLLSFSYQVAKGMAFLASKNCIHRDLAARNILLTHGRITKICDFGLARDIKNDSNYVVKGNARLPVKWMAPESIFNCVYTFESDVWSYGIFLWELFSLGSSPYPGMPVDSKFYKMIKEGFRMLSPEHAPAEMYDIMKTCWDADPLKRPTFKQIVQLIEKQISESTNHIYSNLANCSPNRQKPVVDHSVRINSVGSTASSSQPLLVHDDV

Usually inhibition stands for the relative decrease from the control value, in per cent. As for `O=C(CSc1nc2nccnc2c(=O)n1CCc1ccccc1)Nc1nccs1` [compound 1, PITCOIN1], the inhibition at 1 µM was -4.88% in assay [1], -4.48% in assay [2], -4.11% in assay [3] and -3.93% in assay [4]. The inhibition at 3 µM in assay [1] is -3.23%; in assay [2], 0.47%; in assay [3], -4.09%; in assay [4], -9.87%. Also, the inhibition at 10 µM is -2.09% in assay [1], 6.38% in assay [2], -1.99% in assay [3] and -11.5% in assay [4].

As for `CS(=O)(=O)Nc1cccc(-c2csc(NC(=O)CSc3nc4nccnc4c(=O)n3CCc3ccccc3)n2)c1` [compound 3, PITCOIN3], the inhibition at 1 µM in assay [1] is 4.57%; in assay [2], -12.1%; in assay [3], -2.32%; in assay [4], -2.55%. Moreover, the inhibition at 3 µM is 2.17% in assay [1], 0.144% in assay [2], -0.489% in assay [3] and -10.1% in assay [4]. The inhibition at 10 µM was -4.46% in assay [1], 1.37% in assay [2], 2.18% in assay [3] and -10.1% in assay [4].
